Read-outs that look alike come from different tables or passages of the source.
Tests used:
Ramos RA1 B cells = assay: Ramos FLIPR Assay (intracellular calcium flux, anti-human IgM stimulated); type: cell-based; conditions: for Potency Difference Ramos: ratio of IC50 value for the Comparative Example to that for the corresponding Example: Comparative Example (stereoisomer) IC50 / Example IC50; for IC50: Ramos
Procedure: Ramos FLIPR Assay […] Dye-loaded cells were pelleted (Beckmann GS-CKR, 1200 rpm, room temperature, 5 min) and resuspended at room temperature in RPMI minus phenol red with 50 mM HEPES and 10% FBS to a density of 1×10^6 cells/mL. 150 μL aliquots (150,000 cells/well) were plated into 96 well poly-D-lysine coated assay plates (BD 35 4640) and briefly centrifuged (Beckmann GS-CKR 800 rpm, 5 min, without brake). Next, 50 μL compound dilutions in 0.4% DMSO/RPMI minus phenol red+50 mM HEPES+10% FBS were added to the wells and the plate was incubated at room temperature in the dark for 1 hour. The assay plate was briefly centrifuged as above prior to measuring calcium levels. Using the […] (Molecular Devices), cells were stimulated by adding goat anti-human IgM (Invitrogen AHI0601) to 2.5 μg/mL. Changes in intracellular calcium concentrations were measured for 180 seconds and percent inhibition was determined relative to peak calcium levels seen in the presence of stimulation only. The Ramos assay measures the ability of a compound to move through the cell membrane into the cell interior. A lower IC50 value indicates a greater ability to move into the cell interior.

human recombinant Btk = human recombinant Btk (Homo sapiens (Human), UniProt Q06187); assay: Human Recombinant Btk Enzyme Assay; type: biochemical; conditions: for Potency Difference Btk: ratio of IC50 value for the Comparative Example to that for the corresponding Example: Comparative Example (stereoisomer) IC50 / Example IC50
Procedure: Human Recombinant Btk Enzyme Assay
To V-bottom 384-well plates were added test compounds, human recombinant Btk (1 nM, Invitrogen Corporation), fluoresceinated peptide (1.5 μM), ATP (20 μM), and assay buffer (20 mM HEPES pH 7.4, 10 mM MgCl2, 0.015% Brij 35 surfactant and 4 mM DTT in 1.6% DMSO), with a final volume of 30 μL. After incubating at room temperature for 60 min, the reaction was terminated by adding 45 μL of 35 mM EDTA to each sample. The reaction mixture was analyzed on the Caliper LABCHIP® 3000 (Caliper, Hopkinton, Mass.) by electrophoretic separation of the fluorescent substrate and phosphorylated product. […] Compounds were dissolved at 10 mM in DMSO and evaluated at eleven concentrations.

[1] = Homo sapiens, Table 4, read-out: Example Ramos IC50
[2] = Table 3, calcium flux, goat anti-human IgM 2.5 μg/mL, read-out: Ramos IC50 value
[3] = Table 3, ATP 20 μM, 60 min room temperature, read-out: Btk IC50 value
[4] = Table 4, read-out: Example Btk IC50

human recombinant Btk, sequence (Q06187 whole entry): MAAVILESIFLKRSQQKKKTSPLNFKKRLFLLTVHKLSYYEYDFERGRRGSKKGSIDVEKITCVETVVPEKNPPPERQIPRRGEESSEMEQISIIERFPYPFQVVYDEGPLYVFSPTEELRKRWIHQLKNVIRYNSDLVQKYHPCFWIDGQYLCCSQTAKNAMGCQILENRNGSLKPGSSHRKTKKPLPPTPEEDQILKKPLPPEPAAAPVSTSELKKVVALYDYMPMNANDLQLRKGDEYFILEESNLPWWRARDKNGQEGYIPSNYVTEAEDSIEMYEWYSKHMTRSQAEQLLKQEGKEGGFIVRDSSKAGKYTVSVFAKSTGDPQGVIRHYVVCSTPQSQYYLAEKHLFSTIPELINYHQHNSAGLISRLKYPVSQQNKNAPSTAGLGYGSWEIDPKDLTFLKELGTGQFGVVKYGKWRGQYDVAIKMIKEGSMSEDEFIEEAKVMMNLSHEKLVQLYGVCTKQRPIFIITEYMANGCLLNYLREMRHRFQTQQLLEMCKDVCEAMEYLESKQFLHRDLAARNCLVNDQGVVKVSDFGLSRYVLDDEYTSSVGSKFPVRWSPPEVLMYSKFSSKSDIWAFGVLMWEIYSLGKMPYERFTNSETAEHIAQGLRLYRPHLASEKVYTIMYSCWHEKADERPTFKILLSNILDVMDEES

Compound | Potency Difference Ramos: ratio of IC50 value for the Comparative Example to that for the corresponding Example (Ramos RA1 B cells) | IC50 (Ramos RA1 B cells; [1]) [nM] | IC50 (Ramos RA1 B cells; [2]) [nM] | Potency Difference Btk: ratio of IC50 value for the Comparative Example to that for the corresponding Example (human recombinant Btk) | IC50 (human recombinant Btk; [3]) [nM] | IC50 (human recombinant Btk; [4]) [nM]
C=CC(=O)N1CCc2c(cccc2-c2c(F)cc(C(N)=O)c3[nH]c4ccccc4c23)C1 (single isomer, unassigned) [Example 5, 4-(2-Acryloyl-1,2,3,4-tetrahydroisoquinolin-5-yl)-3-fluoro-9H-carbazole-1-carboxamide] | 30 | 2.4 | 2.4 | 60 | 0.067 | 0.067
C=CC(=O)N1CCc2c(cccc2-c2c(F)cc(C(N)=O)c3[nH]c4c(c23)CC(F)(F)CC4)C1 (single isomer, unassigned) [Example 6, 5-(2-Acryloyl-1,2,3,4-tetrahydroisoquinolin-5-yl)-3,3,6-trifluoro-2,3,4,9-tetrahydro-1H-carbazole-8-carboxamide] | >13 | 23 | 23 | 38 | 0.12 | 0.12
C=CC(=O)N1CCc2c(cccc2-c2c(F)cc(C(N)=O)c3[nH]c4cc(C(F)(F)F)ccc4c23)C1 (single isomer, unassigned) [Example 7, 4-(2-Acryloyl-1,2,3,4-tetrahydroisoquinolin-5-yl)-3-fluoro-7-(trifluoromethyl)-9H-carbazole-1-carboxamide] | >27 | 11 | 10.7 | 78 | 0.18 | 0.18
C=CC(=O)N1CCOc2c(-c3c(F)cc(C(N)=O)c4[nH]c5ccccc5c34)cccc21 (single isomer, unassigned) [Example 8, 4-(4-Acryloyl-3,4-dihydro-2H-benzo[b][1,4]oxazin-8-yl)-3-fluoro-9H-carbazole-1-carboxamide] | 9.4 | 6.9 | 6.9 | 19 | 0.077 | 0.077
C=CC(=O)N1CCCOc2c(-c3c(F)cc(C(N)=O)c4[nH]c5cc(C(F)(F)F)ccc5c34)cccc21 (single isomer, unassigned) [Example 12, 4-(5-Acryloyl-2,3,4,5-tetrahydrobenzo[b][1,4]oxazepin-9-yl)-3-fluoro-7-(trifluoromethyl)-9H-carbazole-1-carboxamide] | 48 | 6.2 | 6.2 | 26 | 0.37 | 0.37
C=CC(=O)N1CCSc2c(-c3c(F)cc(C(N)=O)c4[nH]c5ccccc5c34)cccc21 (single isomer, unassigned) [Example 14, 4-(4-acryloyl-3,4-dihydro-2H-benzo[b][1,4]thiazin-8-yl)-3-fluoro-9H-carbazole-1-carboxamide] | 19 | 7.8 | 7.8 | 60 | 0.073 | 0.073
